Measured values from patent US4645778A, “2-(N-pyrrolidino)-3-isobutoxy-n-substituted-phenyl-n-benzyl-propylamines, their preparation and pharmaceutical use” (Riom Laboratoires C.E.R.M. "RL-Cerm"S.A., priority 1983, dated 1987).
Read-outs that look alike come from different tables or passages of the source.

Key:
isolated aorta = test: Vascular tropism: anti-calcium effect on rabbit isolated aorta (contraction by calcium chloride); conditions: for ISOLATED AORTA pA2 / ISOLATED AORTA pD'2: rabbit isolated aorta, K+ depolarised, 37° C., 15 min; for ISOLATED AORTA pA2: competitive antagonism vs calcium chloride; for ISOLATED AORTA pD'2: non-competitive antagonism vs calcium chloride; for vascular anti-calcium activity / vascular tropism (in words): vascular test, summary of Table I
Experimental: (§1) In vitro, the calcium antagonism activity was investigated in accordance with the methods summarised below.
Investigation of a vascular tropism
A rabbit's isolated aorta, cut into spirals, was placed in a KREBS solution kept at 37° C., free from Ca^++ and enriched with K^+ ([…] of KCL/liter) for depolarisation.
The contracting effect of cumulative concentrations of calcium chloride was investigated and the anti-calcium effect of the compounds studied was evaluated 15 minutes after their addition to the solution in which the aorta was kept.
(§2) The conventional parameters of molecular pharmacology are subsequently determined (pA2 for a competitive antagonism and pD'2 for a non-competitive anatagonism), using the technique of VAN ROSSUM [ARCH. INT. PHARMACODYN. THER. 143, 299-330 (1963)].

papillary muscle = test: Cardiac tropism: calcium antagonism on rabbit papillary muscle (inotropic effect of calcium chloride); conditions: for cardiac anti-calcium activity / cardiac tropism (in words): cardiac test, summary of Table I; for PAPILLARY MUSCLE pA2 / PAPILLARY MUSCLE pD'2: rabbit papillary muscle
Experimental: as §1
Investiqation of a cardiac tropism
A rabbit's papillary muscle was placed in a KREBS-HENSELEIT solution kept at 37° C. and was stimulated electrically at a frequency of 1.5 Hz (5 ms of pulse at 15 V).
The positive inotropic effect of calcium chloride was investigated by the method of cumulative dose-response curves.
The substances to be studied were added to the solution in which the muscle was kept, 15 minutes prior to determining the agonist curves.
as §2

anaesthetised dog = test: Anti-angina activity: haemodynamic effects in the anaesthetised dog; format: in vivo; conditions: 5 mg.kg^-1 intravenously; for anti-anginal activity (in words): summary of Table II; for change in vivo at 5 mg/kg: Canis lupus familiaris, iv
Experimental: In vivo, the anti-angina activity was investigated by measuring the haemodynamic effects in the anaesthetised dog, in accordance with the method summarised below.
The following parameters were recorded on the dog anaesthetised with chloralose (100 mg.kg^-1 administered intravenously):
pulse rate, by means of subcutaneous ECG electrodes connected to a BECKMAN cardiotachymeter (branch D II),
coronary arterial flow recorded by means of a STATHAM electromagnetic flowmeter and
antitachycardiac action (inhibition of the positive chronotropic effects of isoprenaline).
These parameters were recorded continuously on a BECKMAN dynograph and at the same time the duration of the action was measured.
The compounds of the invention are administered intravenously at a dose of 5 mg.kg^-1.

[1] = 37° C., 15 min preincubation, competitive antagonism vs calcium chloride
[2] = read-out: CORONARY FLOW Variation
[3] = inhibition of positive chronotropic effects of isoprenaline, read-out: ANTI-TACHYCARDIAC ACTION Variation
[4] = inhibition of positive chronotropic effects of isoprenaline

| Structure (SMILES) | ISOLATED AORTA pA2 (isolated aorta) | ISOLATED AORTA pD'2 (isolated aorta) | cardiac anti-calcium activity / cardiac tropism (in words) (papillary muscle) | PAPILLARY MUSCLE pA2 (papillary muscle; [1]) | PAPILLARY MUSCLE pD'2 (papillary muscle; 37° C., 15 min preincubation, non-competitive antagonism vs calcium chloride) | CORONARY FLOW Duration (anaesthetised dog) | PULSE RATE Duration (anaesthetised dog) | anti-anginal activity (in words) (anaesthetised dog) | change in vivo at 5 mg/kg (anaesthetised dog; [2]) | change in vivo at 5 mg/kg (anaesthetised dog; read-out: PULSE RATE Variation) | change in vivo at 5 mg/kg (anaesthetised dog; [3]) | ANTI-TACHYCARDIAC ACTION Duration (anaesthetised dog; [4]) | PAPILLARY MUSCLE pD'2 (papillary muscle; at 10^-4 M, 15 min) | PAPILLARY MUSCLE pA2 (papillary muscle; at 10^-4 M) | vascular anti-calcium activity / vascular tropism (in words) (isolated aorta) | PAPILLARY MUSCLE pA2 (papillary muscle; at 10^-4 M, 15 min) | PAPILLARY MUSCLE pA2 (papillary muscle; at 10^-5 M, 15 min) | PAPILLARY MUSCLE pD'2 (papillary muscle; at 10^-4 M) |
| --- | --- | --- | --- | --- | --- | --- | --- | --- | --- | --- | --- | --- | --- | --- | --- | --- | --- | --- |
| Cc1ccc(N(Cc2ccccc2)CC(COCC(C)C)N2CCCC2)cc1 (stereo not shown) [Compound 1] | 4.83 ± 0.28 | 5.08 ± 0.27 | more marked cardiac tropism | 4.30 ± 0.24 | 3.81 ± 0.20 |  |  |  |  |  |  |  |  |  |  |  |  |  |
| CC(C)COCC(CN(Cc1ccccc1)c1ccc(Cl)c(Cl)c1)N1CCCC1 (stereo not shown) [Compound 2] |  |  |  |  |  | 10 min | > 45 min | most valuable anti-anginal activity | 39% | -11% | -51% | 15 min |  |  |  |  |  |  |
| COc1ccc(N(Cc2ccccc2)CC(COCC(C)C)N2CCCC2)cc1 (stereo not shown) [Compound 3] | 4.70 ± 0.38 | 4.00 ± 0.24 | more marked cardiac tropism | 4.87 ± 0.40 |  | 20 min | > 45 min | most valuable anti-anginal activity | 196% | -24% | -63% | 30 min | 4.5 |  |  |  |  |  |
| CC(C)COCC(CN(Cc1ccccc1)c1ccc(Cl)cc1)N1CCCC1 (stereo not shown) [Compound 4] |  |  |  |  |  | 3 min | > 45 min |  | 32% | -27% | -60% | > 45 min |  |  |  |  |  |  |
| CC(C)COCC(CN(Cc1ccccc1)c1cccc(Cl)c1)N1CCCC1 (stereo not shown) [Compound 5, 2-(N-pyrrolidino)-3-isobutoxy-N-(3-chloro)-phenyl-N-benzyl-propylamine] | 4.83 ± 0.27 | 4.71 ± 0.20 |  |  |  | 15 min | > 45 min | most valuable anti-anginal activity | 98% | -20% | -45% | 15 min |  | Inactive |  |  |  |  |
| CC(C)COCC(CN(Cc1ccccc1)c1cccc(C(F)(F)F)c1)N1CCCC1 (stereo not shown) [Compound 6] | 5.19 ± 0.37 | 3.73 ± 0.50 |  |  |  | 1 min | > 45 min |  | 20% | -32% | -64% | > 45 min |  |  | predominantly vascular tropism | 3.41 |  |  |
| CC(C)COCC(CN(Cc1ccccc1)c1cc(Cl)cc(Cl)c1)N1CCCC1 (stereo not shown) [Compound 7] | 4.70 ±0.60 | 3.85 ± 0.43 |  |  |  | 5 min | 45 min |  | 31% | -23% | -54% | 45 min |  | Inactive |  |  |  |  |
| Cc1cccc(C)c1N(Cc1ccccc1)CC(COCC(C)C)N1CCCC1 (stereo not shown) [Compound 8] | 5.21 ± 0.65 | 4.87 ± 0.48 | noteworthy |  |  | 15 min | 35 min | most valuable anti-anginal activity | 85% | -36% | -28% | 15 min | 3.69 |  | noteworthy |  | 4.67 |  |
| CC(C)COCC(CN(Cc1ccccc1)c1ccc2c(c1)OCO2)N1CCCC1 (stereo not shown) [Compound 11, 2-(N-pyrrolidino)-3-isobutoxy-N-(3,4-methylenedioxy)-phenyl-N-benzyl-propylamine] | 4.94 ± 0.43 | 4.80 ± 0.05 | about the highest activity | 5.44 ± 0.26 |  | 20 min | > 45 min | most valuable anti-anginal activity | 116% | -50% | -47% | 45 min |  |  | about the highest activity |  |  | total |
